Tests used:
mouse ACLT model [1] = assay: Pathological evaluation of mouse joints (safranin O staining) in ACLT model; format: in vivo; details: intra-articular, joints taken 13 days after first dosing, safranin O sections
Text: C57BL/6 mice aged 10 weeks were used for the study (n=12 for each group). Anterior cruciate ligament transection (ACLT) model was used to simulate the pathological condition in OA. To conduct ACLT surgery, the joint capsule of the right rear limb of mice was opened, and the anterior cruciate ligament (ACL) was transected with micro-scissors under a surgical microscope. After irrigation with saline to remove tissue debris, the skin incision was closed. Blank vehicle contained 5% Pluronic F68 (BASF, Germany) in 10 mM phosphate buffered saline (PBS, NaH2PH4/Na2HPO4) with pH adjusted to 7.4. Before each injection and sacrificing at the end point, the function of the limbs was assessed by a weight bearing test. All the mice were sacrificed for pathological evaluation and immunohistochemical staining 13 days after first dosing. Mouse joints were fixed in 4% paraformaldehyde overnight, dehydrated in increasing concentrations of ethanol and embedded in paraffin. Sections (5 μm) were cut from the paraffin blocks and applied to glass slides. The sections were stained for proteoglycans with aqueous safranin O (0.1%) for 5 min, and the specimens were then mounted.

mouse ACLT model [2] = assay: Weight bearing test in mouse osteoarthritis (ACLT) model; format: in vivo; details: for weight bearing % (weight on operated limb versus contralateral unoperated limb): 13 days after first dose
Text: C57BL/6 mice aged 10 weeks were used for the study (n=12 for each group). Anterior cruciate ligament transection (ACLT) model was used to simulate the pathological condition in OA. To conduct ACLT surgery, the joint capsule of the right rear limb of mice was opened, and the anterior cruciate ligament (ACL) was transected with micro-scissors under a surgical microscope. After irrigation with saline to remove tissue debris, the skin incision was closed. Blank vehicle contained 5% Pluronic F68 (BASF, Germany) in 10 mM phosphate buffered saline (PBS, NaH2PH4/Na2HPO4) with pH adjusted to 7.4. Before each injection and sacrificing at the end point, the function of the limbs was assessed by a weight bearing test. All the mice were sacrificed for pathological evaluation and immunohistochemical staining 13 days after first dosing. Weight bearing test was conducted using a […] model 600MR (IITC Life Science, CA, USA). Briefly, after calibration of the equipment, mice were placed inside the chamber to stand with each hind paw on a scale, allowed to stand for 5-10 s until the readings were stable. The readings reflected the weight that was placed on each hind limb. The ACLT surgery caused osteoarthritis (OA) and decreased the weight placed on the hind limb. The results were expressed as the percentage of the weight placed on the operated limb versus the contralateral unoperated limb (weight bearing %). The value of weight bearing % is expected to be 100 in healthy mice, indicating the same weight placed on both limbs. The value of weight bearing % will decrease to 50˜60 after ACLT surgery due to less weight that could be placed on the operated limb than the unoperated limb. Alleviation of joint pain by […] should be reflected by an increased value of weight bearing %.

Q: How did the cartilage development (mouse ACLT model [1]) turn out when `CCN1[C@@H](C(=O)NC23CCC(C(=O)O)(CC2)CC3)[C@H](c2cccc(Cl)c2F)[C@]2(C(=O)Nc3cc(Cl)ccc32)C12CCCCC2` [compound A] was run?
A: Its cartilage development is “increased cartilage development”.

Q: And the “pathological changes (articular cartilage erosion, proteoglycan loss, thinning and calcification of articular cartilage)” value (mouse ACLT model [1])?
A: The value was “attenuated”.

Q: And the “weight bearing % (weight on operated limb versus contralateral unoperated limb)” value (“weight bearing %” for short) (mouse ACLT model [2]; 0.01 μmol (1 mM, 10 uL) intra-articular, compared with untreated control (P<0.05) and vehicle control (P<0.0001))?
A: Its value is “significantly increased value of weight bearing %”.

Q: What about the “weight bearing %” value (mouse ACLT model [2]; 0.05 μmol (5 mM, 10 uL) intra-articular, P<0.05 vs 1 mM compound A group) of the same compound?
A: Its value is “further increase in the value of weight bearing %”.

Q: What about the “weight bearing %” value (mouse ACLT model [2]; C57BL/6 mice, ACLT, intra-articular injection, across doses 0.01 and 0.05 μmol) of the same compound?
A: The value was “dose-dependent effect in improving weight bearing %”.

Q: What about the joint pain (mouse ACLT model [2]; mouse ACLT model, intra-articular injection) of the same compound?
A: The joint pain was “significantly relieved the joint pain”.

— patent US11395815B2, “Compound for treating osteoarthritis” (Ascentage Pharma (Suzhou) Co., Ltd., priority 2018, dated 2022)
